In PubChem BioAssay (NCI):
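Tested at 5 concentrations; 48 h exposure; 96-well plates; endpoints linearly interpolated, else capped at highest concentration. TGI is the concentration that stops growth completely.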

What was measured:
Assay in all cases: inhibition of tumour cell growth, NCI panel, 48 h
[1] = tested on: 786-0 renal
[2] = tested on: A549 NSCLC
[3] = tested on: ACHN renal
[4] = tested on: BT-549 breast
[5] = tested on: CAKI-1 renal
[6] = tested on: CCRF-CEM leukemia
[7] = tested on: COLO 205 colon
[8] = tested on: DU-145 prostate
[9] = tested on: EKVX NSCLC
[10] = tested on: HCC-2998 colon
[11] = tested on: HCT-116 colon
[12] = tested on: HCT-15 colon
[13] = tested on: HL-60(TB) leukemia
[14] = tested on: HOP-62 NSCLC
[15] = tested on: HS 578T breast
[16] = tested on: HT29 colon
[17] = tested on: IGROV1 ovarian
[18] = tested on: K-562 leukemia
[19] = tested on: KM12 colon
[20] = tested on: LOX IMVI melanoma
[21] = tested on: M14 melanoma
[22] = tested on: MCF7 breast
[23] = tested on: MDA-MB-231 breast
[24] = tested on: MDA-MB-435
[25] = tested on: MDA-N
[26] = tested on: MOLT-4 leukemia
[27] = tested on: NCI-H226 lung
[28] = tested on: NCI-H23 lung
[29] = tested on: NCI-H460 lung
[30] = tested on: NCI-H522 lung
[31] = tested on: NCI/ADR-RES ovarian
[32] = tested on: OVCAR-3 ovarian
[33] = tested on: OVCAR-4 ovarian
[34] = tested on: OVCAR-5 ovarian
[35] = tested on: OVCAR-8 ovarian
[36] = tested on: PC-3 prostate
[37] = tested on: RPMI-8226 leukemia
[38] = tested on: RXF 393 renal
[39] = tested on: SF-268 CNS
[40] = tested on: SF-295 CNS
[41] = tested on: SF-539 CNS
[42] = tested on: SK-MEL-2 melanoma
[43] = tested on: SK-MEL-28 melanoma
[44] = tested on: SK-MEL-5 melanoma
[45] = tested on: SK-OV-3 ovarian
[46] = tested on: SN12C renal
[47] = tested on: SNB-19 CNS
[48] = tested on: SNB-75 CNS
[49] = tested on: SR leukemia
[50] = tested on: SW-620 colon
[51] = tested on: T-47D breast
[52] = tested on: TK-10 renal
[53] = tested on: U251 CNS
[54] = tested on: UACC-257 melanoma
[55] = tested on: UACC-62 melanoma
[56] = tested on: UO-31 renal
[57] = tested on: A498 renal
[58] = tested on: HOP-92 NSCLC
[59] = tested on: MALME-3M melanoma

SMILES: Cc1cc(=O)oc2c(C)c3oc(CBr)c(Br)c3cc12
- TGI [1]: 29.7 µM
- TGI [2]: 37.2 µM
- TGI [3]: > 100 µM
- TGI [4]: > 100 µM
- TGI [5]: 31.6 µM
- TGI [6]: > 100 µM
- TGI [7]: > 100 µM
- TGI [8]: > 100 µM
- TGI [9]: > 100 µM
- TGI [10]: 70.7 µM
- TGI [11]: 67.9 µM
- TGI [12]: > 100 µM
- TGI [13]: > 100 µM
- TGI [14]: > 100 µM
- TGI [15]: > 100 µM
- TGI [16]: > 100 µM
- TGI [17]: 36.1 µM
- TGI [18]: 66.8 µM
- TGI [19]: 83.8 µM
- TGI [20]: 28.8 µM
- TGI [21]: 50.3 µM
- TGI [22]: > 100 µM
- TGI [23]: > 100 µM
- TGI [24]: > 100 µM
- TGI [25]: > 100 µM
- TGI [26]: > 100 µM
- TGI [27]: > 100 µM
- TGI [28]: > 100 µM
- TGI [29]: 49 µM
- TGI [30]: 30.2 µM
- TGI [31]: 95.7 µM
- TGI [32]: > 100 µM
- TGI [33]: 88.1 µM
- TGI [34]: 80 µM
- TGI [35]: 97.7 µM
- TGI [36]: > 100 µM
- TGI [37]: 64.6 µM
- TGI [38]: 41.6 µM
- TGI [39]: 78.6 µM
- TGI [40]: 42.5 µM
- TGI [41]: > 100 µM
- TGI [42]: > 100 µM
- TGI [43]: > 100 µM
- TGI [44]: 33.8 µM
- TGI [45]: > 100 µM
- TGI [46]: 58.7 µM
- TGI [47]: > 100 µM
- TGI [48]: 70 µM
- TGI [49]: 98.5 µM
- TGI [50]: 52.1 µM
- TGI [51]: 72.6 µM
- TGI [52]: > 100 µM
- TGI [53]: > 100 µM
- TGI [54]: > 100 µM
- TGI [55]: 37.6 µM
- TGI [56]: 36.5 µM

SMILES: Cc1cc(C)c2c(SCc3ccc(Cl)cc3Cl)nc(N)nc2n1
- TGI [1]: 41.8 µM
- TGI [57]: > 100 µM
- TGI [2]: > 100 µM
- TGI [3]: > 100 µM
- TGI [4]: > 100 µM
- TGI [5]: > 100 µM
- TGI [6]: > 100 µM
- TGI [7]: > 100 µM
- TGI [8]: > 100 µM
- TGI [9]: > 100 µM
- TGI [11]: > 100 µM
- TGI [12]: > 100 µM
- TGI [13]: > 100 µM
- TGI [14]: > 100 µM
- TGI [58]: 58.1 µM
- TGI [15]: > 100 µM
- TGI [16]: > 100 µM
- TGI [17]: > 100 µM
- TGI [18]: 97.1 µM
- TGI [19]: > 100 µM
- TGI [20]: > 100 µM
- TGI [21]: > 100 µM
- TGI [59]: > 100 µM
- TGI [22]: > 100 µM
- TGI [23]: > 100 µM
- TGI [24]: > 100 µM
- TGI [25]: > 100 µM
- TGI [27]: > 100 µM
- TGI [28]: > 100 µM
- TGI [29]: 67.5 µM
- TGI [30]: 57.1 µM
- TGI [31]: > 100 µM
- TGI [32]: 76.2 µM
- TGI [33]: > 100 µM
- TGI [34]: > 100 µM
- TGI [35]: > 100 µM
- TGI [36]: > 100 µM
- TGI [37]: > 100 µM
- TGI [38]: > 100 µM
- TGI [39]: > 100 µM
- TGI [40]: > 100 µM
- TGI [42]: > 100 µM
- TGI [43]: > 100 µM
- TGI [44]: > 100 µM
- TGI [45]: > 100 µM
- TGI [46]: 60.7 µM
- TGI [47]: > 100 µM
- TGI [48]: > 100 µM
- TGI [49]: > 100 µM
- TGI [50]: > 100 µM
- TGI [51]: 47 µM
- TGI [52]: 47.5 µM
- TGI [53]: > 100 µM
- TGI [54]: 38.2 µM
- TGI [55]: > 100 µM
- TGI [56]: 70.7 µM
